Calls of active or inactive are those of the source.
How the values were obtained:
[1] = viability of uninfected HEp-2 cells – cell-based, HTS, cytotoxicity control for RSV inhibitor project, dose response (AID 2410); assay type: functional; conditions: human respiratory syncytial virus
[2] = target: T1, Voltage-gated N-type calcium channel alpha-1B subunit/Amyloid beta A4 precursor protein-binding family A member 1 (Homo sapiens, UniProt Q00975+Q02410); assay type: protein assay
[3] = target: T1, Voltage-gated N-type calcium channel alpha-1B subunit/Amyloid beta A4 precursor protein-binding family A member 1; assay type: protein assay; remark: listed apart in the source
[4] = target: Trypsin (Sus scrofa, UniProt P00761); assay: trypsin protease activity blockade – biochemical, quenched peptide fluorescence, cherry-pick, selectivity assay for Rce1 protease inhibitor project, dose response (AID 488789)
Sequence of Trypsin (P00761 whole entry): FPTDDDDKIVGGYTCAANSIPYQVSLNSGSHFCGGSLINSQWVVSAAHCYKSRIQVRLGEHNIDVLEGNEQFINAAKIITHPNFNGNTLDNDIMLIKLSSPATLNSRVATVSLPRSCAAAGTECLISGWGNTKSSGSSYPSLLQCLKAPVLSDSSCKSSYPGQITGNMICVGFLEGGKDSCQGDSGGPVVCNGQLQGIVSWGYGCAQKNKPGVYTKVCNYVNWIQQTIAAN

[5] = target: T2, CAAX prenyl protease 2 (Saccharomyces cerevisiae S288c, UniProt Q03530); assay type: biochemical
T2 sequence (Q03530 whole entry): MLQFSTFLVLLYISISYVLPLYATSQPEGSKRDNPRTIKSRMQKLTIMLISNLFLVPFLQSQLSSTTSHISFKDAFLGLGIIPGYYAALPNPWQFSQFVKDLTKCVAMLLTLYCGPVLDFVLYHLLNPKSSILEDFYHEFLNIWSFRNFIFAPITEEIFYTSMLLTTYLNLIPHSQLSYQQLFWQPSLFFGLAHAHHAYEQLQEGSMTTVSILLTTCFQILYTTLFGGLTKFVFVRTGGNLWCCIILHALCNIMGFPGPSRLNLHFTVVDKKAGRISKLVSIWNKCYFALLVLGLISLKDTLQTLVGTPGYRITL

[6] = target: CAAX prenyl protease 1 (Saccharomyces cerevisiae S288c, UniProt P47154); assay: yeast CAAX protease Ste24 inhibition – biochemical, S. cerevisiae, plate reader, cherry-pick, dose response (AID 488815)
[7] = target: T3, CAAX prenyl protease 2 (Homo sapiens, UniProt Q9Y256); assay: inhibition of Ras-converting CAAX protease Rce1 – biochemical, yeast membranes, quenched-peptide fluorescence, cherry-pick, dose response (AID 588849)
T3 sequence (Q9Y256 whole entry): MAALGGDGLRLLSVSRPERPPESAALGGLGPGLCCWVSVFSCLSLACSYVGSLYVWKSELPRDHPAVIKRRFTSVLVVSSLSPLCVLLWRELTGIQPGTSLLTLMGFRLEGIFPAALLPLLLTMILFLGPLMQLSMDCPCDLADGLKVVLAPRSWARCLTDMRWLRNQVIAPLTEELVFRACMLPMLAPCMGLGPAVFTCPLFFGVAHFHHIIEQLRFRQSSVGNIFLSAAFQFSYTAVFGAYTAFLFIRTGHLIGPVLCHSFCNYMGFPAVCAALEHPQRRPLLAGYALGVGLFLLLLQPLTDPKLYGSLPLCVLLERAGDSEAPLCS

[8] = target: Cytochrome P450 2C19 (Homo sapiens, UniProt P33261); assay: Cytochrome panel assay with activity outcomes. Panel member name: p450-cyp2c19 Compounds with AC50 equal or less than 10 uM are considered active; assay type: functional; conditions: read-out: AC50
Sequence of Cytochrome P450 2C19 (P33261 whole entry): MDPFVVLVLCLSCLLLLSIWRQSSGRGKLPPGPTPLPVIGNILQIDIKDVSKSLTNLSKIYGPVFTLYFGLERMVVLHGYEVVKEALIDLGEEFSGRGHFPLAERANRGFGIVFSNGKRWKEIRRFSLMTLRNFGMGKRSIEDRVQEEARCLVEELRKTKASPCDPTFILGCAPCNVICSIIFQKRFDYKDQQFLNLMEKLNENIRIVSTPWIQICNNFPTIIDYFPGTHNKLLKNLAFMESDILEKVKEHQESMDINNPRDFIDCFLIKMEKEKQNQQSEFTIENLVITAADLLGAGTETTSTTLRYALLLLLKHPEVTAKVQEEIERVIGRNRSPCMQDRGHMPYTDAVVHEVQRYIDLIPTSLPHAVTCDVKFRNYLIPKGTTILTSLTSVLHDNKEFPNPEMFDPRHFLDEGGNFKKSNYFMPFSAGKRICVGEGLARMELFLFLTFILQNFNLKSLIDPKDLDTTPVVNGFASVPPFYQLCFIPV

[9] = target: Cytochrome P450 2D6 (Homo sapiens, UniProt P10635);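 also: CYP2D6 member of a cytochrome P450 panel assay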
[10] = target: T4, RNA-binding protein pos-1 (Caenorhabditis elegans, UniProt G5EF15); assay: disruptors of C. elegans POS-1 RNA interaction – biochemical, fluorescence polarization, dose response (AID 1964);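 also: purified POS-1 fused to maltose binding protein made in E. coli; potency of compounds blocking POS-1 binding to fluorescent RNA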
T4 sequence (G5EF15 whole entry): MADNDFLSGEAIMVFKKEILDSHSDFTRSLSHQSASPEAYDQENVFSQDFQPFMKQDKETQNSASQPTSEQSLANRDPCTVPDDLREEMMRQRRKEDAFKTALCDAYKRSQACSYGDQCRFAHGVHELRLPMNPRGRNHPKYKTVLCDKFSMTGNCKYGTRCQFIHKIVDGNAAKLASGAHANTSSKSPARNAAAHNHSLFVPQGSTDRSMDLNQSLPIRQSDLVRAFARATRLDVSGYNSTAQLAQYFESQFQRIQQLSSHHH

[11] = target: T5, Zinc finger protein mex-5 (Caenorhabditis elegans, UniProt Q9XUB2); assay: potency of MEX-5 RNA-binding blockers – biochemical, C. elegans, fluorescence polarization, dose response (AID 1960)
T5 sequence (Q9XUB2 whole entry): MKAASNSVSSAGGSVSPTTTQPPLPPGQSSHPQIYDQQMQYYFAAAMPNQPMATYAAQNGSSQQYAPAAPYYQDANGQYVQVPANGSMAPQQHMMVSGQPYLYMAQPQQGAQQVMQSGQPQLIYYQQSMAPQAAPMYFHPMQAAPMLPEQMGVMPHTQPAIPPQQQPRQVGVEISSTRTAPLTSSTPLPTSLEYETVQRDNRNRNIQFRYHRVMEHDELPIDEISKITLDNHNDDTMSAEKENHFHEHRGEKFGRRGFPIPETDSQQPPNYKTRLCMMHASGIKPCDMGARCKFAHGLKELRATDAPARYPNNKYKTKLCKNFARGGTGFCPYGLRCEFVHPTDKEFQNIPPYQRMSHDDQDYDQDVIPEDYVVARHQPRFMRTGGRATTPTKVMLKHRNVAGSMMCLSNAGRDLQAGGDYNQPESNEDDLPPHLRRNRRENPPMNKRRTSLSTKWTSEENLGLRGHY

[12] = target: Keap1/Nrf2 (Homo sapiens, UniProt Q14145); assay: disruptors of Keap1 binding to Nrf2 peptide – biochemical, fluorescence polarization, cherry-picked samples, dose response (AID 588683)
[13] = target: Cytochrome P450 3A4 (Homo sapiens, UniProt P08684);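 also: CYP3A4 tested as one member of a cytochrome P450 panel screen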
[14] = target: T6, Delta-type opioid receptor (Homo sapiens, UniProt P41143); assay: HTS Image-Based Screen for Antagonists of the DOR Receptor. [Related pubchem assays (depositor defined):AID1777, AID1785, AID1786, AID2133]; assay type: functional
T6 sequence (P41143 whole entry): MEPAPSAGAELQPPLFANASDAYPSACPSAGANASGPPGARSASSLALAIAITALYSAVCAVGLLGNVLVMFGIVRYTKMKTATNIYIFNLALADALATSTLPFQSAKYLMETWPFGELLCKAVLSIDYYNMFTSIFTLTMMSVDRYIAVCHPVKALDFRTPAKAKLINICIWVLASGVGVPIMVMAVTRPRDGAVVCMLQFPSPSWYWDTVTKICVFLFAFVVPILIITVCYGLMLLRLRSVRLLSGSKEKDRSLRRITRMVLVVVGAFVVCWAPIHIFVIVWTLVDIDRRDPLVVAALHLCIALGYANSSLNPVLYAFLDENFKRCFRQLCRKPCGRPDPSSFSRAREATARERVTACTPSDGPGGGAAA

[15] = target: Mu-type opioid receptor (Homo sapiens, UniProt P35372); assay: HTS Image-Based Screen for Agonists of the MOR Receptor. [Related pubchem assays (depositor defined):AID1777, AID1785, AID1786, AID2133]; assay type: functional;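 also: imaging of beta-arrestin GFP recruitment into spots after receptor activation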
Sequence of Mu-type opioid receptor (P35372 whole entry): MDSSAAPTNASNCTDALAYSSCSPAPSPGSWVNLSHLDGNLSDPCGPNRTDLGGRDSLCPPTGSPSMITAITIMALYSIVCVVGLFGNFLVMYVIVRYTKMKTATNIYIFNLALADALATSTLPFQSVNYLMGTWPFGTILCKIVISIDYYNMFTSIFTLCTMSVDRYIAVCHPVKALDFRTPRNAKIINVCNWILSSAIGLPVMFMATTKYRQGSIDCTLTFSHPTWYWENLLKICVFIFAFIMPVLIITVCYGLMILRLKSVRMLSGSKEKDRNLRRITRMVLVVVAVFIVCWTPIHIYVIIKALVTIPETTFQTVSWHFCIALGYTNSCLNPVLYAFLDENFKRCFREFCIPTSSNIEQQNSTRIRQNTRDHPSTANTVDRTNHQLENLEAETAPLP

[16] = target: T6, Delta-type opioid receptor; assay: HTS Image-Based Screen for Agonists of the DOR Receptor. [Related pubchem assays (depositor defined):AID1777, AID1786, AID2133]; assay type: functional
[17] = target: T7, Kappa-type opioid receptor (Homo sapiens, UniProt P41145); assay type: functional
T7 sequence (P41145 whole entry): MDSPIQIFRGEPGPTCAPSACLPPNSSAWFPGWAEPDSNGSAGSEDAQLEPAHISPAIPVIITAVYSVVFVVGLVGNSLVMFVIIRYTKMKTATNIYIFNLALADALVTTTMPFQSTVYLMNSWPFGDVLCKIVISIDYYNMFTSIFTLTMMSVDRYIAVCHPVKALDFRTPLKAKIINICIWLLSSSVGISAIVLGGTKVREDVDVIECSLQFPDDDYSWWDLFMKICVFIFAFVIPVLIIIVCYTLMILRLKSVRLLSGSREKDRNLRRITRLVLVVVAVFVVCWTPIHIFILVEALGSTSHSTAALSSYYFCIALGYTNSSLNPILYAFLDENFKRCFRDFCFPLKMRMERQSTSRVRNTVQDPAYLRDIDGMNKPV

[18] = target: Beta-galactosidase (Escherichia coli, UniProt Q8VNN2); assay type: functional
[19] = target: T7, Kappa-type opioid receptor; assay type: functional; remark: listed apart in the source
[20] = tested on: H9c2; assay: cells; assay type: functional, cell-based; conditions: Rattus norvegicus, H9c2, Myocardium;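 also: confirmatory concentration-response retest of ultra-high-throughput screening hits for modulation of myocardial damage; cell death induced by hydrogen peroxide oxidative stress; compound pretreatment for 60 min then peroxide exposure for 2 h; potency is for protecting the cells against peroxide damage rather than for killing them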
[21] = target: SUMO-activating enzyme (Homo sapiens, UniProt Q9UBT2); assay: blockers of UBC9-mediated SUMO conjugation – biochemical, AlphaScreen, SUMOylation inhibitor project, confirmation (AID 2018); assay type: functional
[22] = viability of PTEN-deleted HCT116 cells – cell-based, HCT116 PTEN knockout, dose response (AID 1047); assay type: functional;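 also: HCT116 colon tumor cells with PTEN knocked out; cells exposed to compound for 60 hours before readout; potency for loss of cell viability measured by luminescence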
[23] = THP-1 cell cytotoxicity, dose response, cytotoxicity control for non-replicating M. tuberculosis project (AID 489025); assay type: functional
[24] = Vero E6 cell cytotoxicity, dose response, cytotoxicity control for non-replicating M. tuberculosis project, secondary assay (AID 492998); assay type: functional, VeroE6; conditions: Vero C1008
[25] = luciferase reporter signal suppression in cells – H4 neuroglioma cells, luminescence, dose response (AID 1990); assay type: functional, cell-based
[26] = Luminescence Cell-Based Dose Response HTS to Identify Inhibitors of 5'UTR Stem-Loop Driven Prion Protein mRNA Translation in H4 Neuroglioblastoma Cells. [Related pubchem assays: 1827 (Project Summary), 1813 (Primary HTS)]; assay type: functional
[27] = alpha-synuclein stem-loop luciferase translation blockers – H4 neuroglioma cells, luminescence, confirmation (AID 1988); assay type: functional, cell-based
[28] = target: T8, Tyrosine-protein phosphatase non-receptor type 22 (Homo sapiens, UniProt Q9Y2R2); assay: SAR LYP1 Fluorescent Assay using pCAP substrate for In Vitro dose response studies - Set 2. [Related pubchem assays (depositor defined):AID1779, AID1784, AID2135, AID449727]; assay type: functional
T8 sequence (Q9Y2R2 whole entry): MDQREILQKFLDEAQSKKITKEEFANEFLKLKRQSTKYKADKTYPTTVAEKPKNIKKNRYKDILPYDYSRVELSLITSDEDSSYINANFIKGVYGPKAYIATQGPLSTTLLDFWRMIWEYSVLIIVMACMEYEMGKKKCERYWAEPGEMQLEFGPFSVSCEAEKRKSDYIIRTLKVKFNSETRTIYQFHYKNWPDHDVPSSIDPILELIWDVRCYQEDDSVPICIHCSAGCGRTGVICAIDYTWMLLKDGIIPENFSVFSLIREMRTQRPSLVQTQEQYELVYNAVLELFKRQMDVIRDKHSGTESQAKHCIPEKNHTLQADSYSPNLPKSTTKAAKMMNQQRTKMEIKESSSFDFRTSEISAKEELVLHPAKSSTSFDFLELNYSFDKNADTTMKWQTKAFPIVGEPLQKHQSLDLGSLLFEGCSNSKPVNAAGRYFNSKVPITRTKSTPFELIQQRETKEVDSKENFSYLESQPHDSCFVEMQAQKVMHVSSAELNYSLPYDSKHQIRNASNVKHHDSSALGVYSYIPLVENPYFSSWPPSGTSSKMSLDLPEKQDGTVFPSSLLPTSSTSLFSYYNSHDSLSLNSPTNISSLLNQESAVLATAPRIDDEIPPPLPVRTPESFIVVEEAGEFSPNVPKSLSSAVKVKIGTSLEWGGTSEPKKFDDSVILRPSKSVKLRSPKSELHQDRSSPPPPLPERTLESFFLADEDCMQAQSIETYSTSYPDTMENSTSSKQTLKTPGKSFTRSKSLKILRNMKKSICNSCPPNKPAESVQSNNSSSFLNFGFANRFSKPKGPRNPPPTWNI

[29] = target: T8, Tyrosine-protein phosphatase non-receptor type 22; assay: SAR LYP1 Fluorescent Assay using OMFP substrate for In Vitro dose response studies - Set 3. [Related pubchem assays (depositor defined):AID1779, AID1784, AID2140, AID2686]; assay type: functional
[30] = target: T9, Tyrosine-protein phosphatase non-receptor type 7 (Homo sapiens, UniProt P35236); assay: inhibition of hematopoietic tyrosine phosphatase HePTP – biochemical, set 2, SAR follow-up (AID 449736); assay type: functional
T9 sequence (P35236 whole entry): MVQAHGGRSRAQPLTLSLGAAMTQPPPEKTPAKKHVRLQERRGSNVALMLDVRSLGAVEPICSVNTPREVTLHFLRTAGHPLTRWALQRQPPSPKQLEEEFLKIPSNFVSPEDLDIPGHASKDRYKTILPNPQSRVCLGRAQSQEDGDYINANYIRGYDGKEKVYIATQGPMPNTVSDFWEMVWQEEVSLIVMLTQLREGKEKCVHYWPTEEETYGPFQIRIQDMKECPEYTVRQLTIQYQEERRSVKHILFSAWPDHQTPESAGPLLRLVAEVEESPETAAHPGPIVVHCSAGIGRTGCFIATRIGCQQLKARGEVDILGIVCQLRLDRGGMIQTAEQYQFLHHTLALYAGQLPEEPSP

[31] = target: T8, Tyrosine-protein phosphatase non-receptor type 22; assay: inhibition of lymphoid tyrosine phosphatase LYP – biochemical, pCAP fluorogenic substrate, fluorescence, set 3, SAR follow-up (AID 449727); assay type: functional
[32] = target: T8, Tyrosine-protein phosphatase non-receptor type 22; assay: SAR LYP1 Fluorescent Assay using OMFP substrate for In Vitro dose response studies - Set 2. [Related pubchem assays (depositor defined):AID1779, AID1784, AID2140, AID449726, AID488869]; assay type: functional

T1 sequence (Q00975 whole entry): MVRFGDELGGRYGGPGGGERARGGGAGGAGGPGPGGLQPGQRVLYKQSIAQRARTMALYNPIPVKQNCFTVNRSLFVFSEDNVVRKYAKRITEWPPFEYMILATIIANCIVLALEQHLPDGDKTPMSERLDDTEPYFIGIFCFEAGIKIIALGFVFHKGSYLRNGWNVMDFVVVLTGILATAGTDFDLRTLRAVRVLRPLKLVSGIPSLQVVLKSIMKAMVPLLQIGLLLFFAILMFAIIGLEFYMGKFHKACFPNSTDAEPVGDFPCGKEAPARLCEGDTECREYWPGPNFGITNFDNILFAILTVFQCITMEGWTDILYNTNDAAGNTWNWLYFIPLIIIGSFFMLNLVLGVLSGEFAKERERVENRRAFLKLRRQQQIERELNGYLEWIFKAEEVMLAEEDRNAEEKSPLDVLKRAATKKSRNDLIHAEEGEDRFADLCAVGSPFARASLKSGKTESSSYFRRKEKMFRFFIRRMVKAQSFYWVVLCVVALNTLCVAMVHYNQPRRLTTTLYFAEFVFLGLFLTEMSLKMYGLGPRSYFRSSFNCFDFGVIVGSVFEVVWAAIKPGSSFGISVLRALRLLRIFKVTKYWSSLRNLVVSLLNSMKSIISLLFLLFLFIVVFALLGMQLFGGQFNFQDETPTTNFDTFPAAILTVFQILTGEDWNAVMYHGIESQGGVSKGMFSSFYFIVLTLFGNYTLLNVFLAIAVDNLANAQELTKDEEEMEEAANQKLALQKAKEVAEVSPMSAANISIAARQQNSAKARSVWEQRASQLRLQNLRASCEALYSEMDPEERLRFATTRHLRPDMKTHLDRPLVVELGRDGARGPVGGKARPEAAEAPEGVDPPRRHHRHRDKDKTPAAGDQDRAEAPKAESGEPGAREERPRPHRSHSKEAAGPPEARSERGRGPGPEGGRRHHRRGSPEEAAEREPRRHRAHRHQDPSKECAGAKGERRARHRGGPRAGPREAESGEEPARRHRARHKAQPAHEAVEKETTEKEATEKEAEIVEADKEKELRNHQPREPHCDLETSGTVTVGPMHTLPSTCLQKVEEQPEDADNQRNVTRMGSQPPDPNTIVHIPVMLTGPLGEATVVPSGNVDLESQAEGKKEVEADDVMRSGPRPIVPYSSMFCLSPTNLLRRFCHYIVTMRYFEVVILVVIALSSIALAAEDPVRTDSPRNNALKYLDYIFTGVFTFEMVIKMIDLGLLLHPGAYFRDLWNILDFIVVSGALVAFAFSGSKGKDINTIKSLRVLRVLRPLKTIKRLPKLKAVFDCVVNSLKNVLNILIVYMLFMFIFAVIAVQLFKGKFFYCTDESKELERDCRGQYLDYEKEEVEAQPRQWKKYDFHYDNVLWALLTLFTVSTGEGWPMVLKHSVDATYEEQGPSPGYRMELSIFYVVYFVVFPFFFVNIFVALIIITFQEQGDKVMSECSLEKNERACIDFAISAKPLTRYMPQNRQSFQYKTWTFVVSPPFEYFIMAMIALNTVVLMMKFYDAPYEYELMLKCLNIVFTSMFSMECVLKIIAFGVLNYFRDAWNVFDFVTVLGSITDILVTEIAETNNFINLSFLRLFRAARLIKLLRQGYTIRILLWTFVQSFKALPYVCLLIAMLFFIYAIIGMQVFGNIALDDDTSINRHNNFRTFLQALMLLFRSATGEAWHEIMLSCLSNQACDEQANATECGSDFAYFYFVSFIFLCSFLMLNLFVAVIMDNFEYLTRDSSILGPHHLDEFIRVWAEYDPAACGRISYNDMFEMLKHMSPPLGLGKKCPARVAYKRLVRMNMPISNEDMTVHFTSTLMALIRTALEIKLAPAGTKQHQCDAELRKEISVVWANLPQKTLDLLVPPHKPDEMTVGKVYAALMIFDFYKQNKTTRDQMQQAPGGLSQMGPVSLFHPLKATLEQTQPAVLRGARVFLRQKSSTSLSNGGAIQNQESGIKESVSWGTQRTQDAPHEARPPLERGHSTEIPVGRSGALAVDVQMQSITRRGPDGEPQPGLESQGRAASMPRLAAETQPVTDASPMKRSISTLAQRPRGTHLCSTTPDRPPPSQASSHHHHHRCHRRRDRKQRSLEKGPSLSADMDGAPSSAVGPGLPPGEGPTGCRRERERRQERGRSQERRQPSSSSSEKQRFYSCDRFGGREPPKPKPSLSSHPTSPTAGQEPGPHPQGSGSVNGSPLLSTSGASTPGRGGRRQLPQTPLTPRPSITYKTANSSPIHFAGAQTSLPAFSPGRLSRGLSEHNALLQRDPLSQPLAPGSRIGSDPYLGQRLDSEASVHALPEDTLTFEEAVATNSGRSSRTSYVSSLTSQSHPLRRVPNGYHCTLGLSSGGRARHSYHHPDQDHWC
T1 sequence (Q02410 whole entry): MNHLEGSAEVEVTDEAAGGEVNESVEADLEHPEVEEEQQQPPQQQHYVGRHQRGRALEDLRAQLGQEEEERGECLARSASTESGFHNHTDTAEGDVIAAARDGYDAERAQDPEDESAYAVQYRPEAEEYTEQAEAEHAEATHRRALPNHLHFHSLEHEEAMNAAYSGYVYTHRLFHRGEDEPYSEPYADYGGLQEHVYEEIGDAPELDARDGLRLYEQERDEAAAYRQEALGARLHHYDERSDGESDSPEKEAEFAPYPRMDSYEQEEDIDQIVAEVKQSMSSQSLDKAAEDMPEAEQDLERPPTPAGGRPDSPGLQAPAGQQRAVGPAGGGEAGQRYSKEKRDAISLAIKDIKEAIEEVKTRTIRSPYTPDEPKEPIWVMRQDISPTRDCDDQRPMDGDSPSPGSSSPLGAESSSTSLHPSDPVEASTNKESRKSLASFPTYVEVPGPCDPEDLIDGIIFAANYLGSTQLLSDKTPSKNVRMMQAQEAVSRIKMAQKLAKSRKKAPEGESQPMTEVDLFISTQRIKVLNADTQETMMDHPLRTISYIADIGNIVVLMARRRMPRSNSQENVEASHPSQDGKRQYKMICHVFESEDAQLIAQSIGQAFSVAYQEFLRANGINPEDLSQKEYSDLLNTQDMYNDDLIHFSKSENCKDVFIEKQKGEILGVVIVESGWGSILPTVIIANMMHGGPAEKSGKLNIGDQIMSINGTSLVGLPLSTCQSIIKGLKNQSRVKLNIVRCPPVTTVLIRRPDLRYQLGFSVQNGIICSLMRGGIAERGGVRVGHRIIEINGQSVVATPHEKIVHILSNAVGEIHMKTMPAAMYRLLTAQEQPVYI

COc1cc(NC(=O)c2cccc(F)c2)ccc1NC(=O)c1cc2ccccc2o1
CC50 [1]: > 50 µM (active)
IC50 [2]: 6.19 µM (active)
IC50 [3]: > 50 µM (inactive)

COC(=O)Cc1c(C)c2ccc(OCc3nn[nH]n3)c(C)c2oc1=O
AC50 [4]: 21.3 µM (active)
AC50 [5]: 24.6 µM (active)
AC50 [6]: 12.6 µM (active)
AC50 [7]: 29.6 µM (active)

COc1ccccc1OCCOc1ccc(/C=C2/C(=N)N3OC(C)=CC3=NC2=O)cc1OC
IC50 [2]: 0.212 µM (active)
IC50 [3]: > 50 µM (inactive)
AC50 [8]: 2 µM (inconclusive)
AC50 [9]: 6.31 µM (inconclusive)

CCOc1cc(C2C(C#N)=C(N)OC(C)=C2C(C)=O)cc(Br)c1O (stereo not given)
EC50 [10]: 12.3 µM (inconclusive)
EC50 [11]: 12.3 µM (active)
AC50 [12]: > 52 µM (inactive)

COc1ccc(-c2cc(C(=O)Nc3cnn(Cc4ccccc4C)c3)no2)cc1OC
AC50 [8]: 25.1 µM (inconclusive)
AC50 [13]: inconclusive

CC(OC(=O)c1cc2c(ccc3ccccc32)oc1=O)c1nc2ccccc2s1 (stereo not given)
IC50 [14]: > 32 µM (inactive)
EC50 [15]: > 32 µM (inactive)
EC50 [16]: > 32 µM (inactive)
IC50 [17]: 10.5 µM (active)
EC50 [18]: > 31.5 µM (inactive)
IC50 [19]: > 32 µM
IC50 [20]: > 79 µM (inactive)

O=C(Cn1c2ccccc2c(=O)c2ccccc21)Nc1ccccc1F
AC50 [6]: 6.04 µM (active)
AC50 [7]: 0.345 µM (active)

Cc1c(C(=O)Nc2ccc(F)cc2)cn2c(nc3ccccc32)c1C#N
IC50 [21]: 41.7 µM (active)

CCOC(=O)Cn1c2ccccc2c2nc3ccccc3nc21
IC50 [21]: 29.6 µM (active)
EC50 [22]: 107 µM (active)

O=C(Nc1ccc(N2CCN(C(=O)c3ccco3)CC2)c(Cl)c1)c1cccs1
CC50 [23]: > 40 µM (active)
CC50 [24]: > 20 µM (active)

O=C(NNC1=Nc2ccccc2SC1)c1ccc(Cl)cc1
IC50 [14]: > 32 µM (inactive)
EC50 [25]: 11 µM (active)
EC50 [15]: > 32 µM (inactive)
EC50 [16]: > 32 µM (inactive)
EC50 [26]: 18.4 µM (active)
EC50 [27]: 8.56 µM (active)
IC50 [17]: 10.5 µM (active)
EC50 [18]: > 31.5 µM (inactive)
IC50 [19]: > 32 µM

CN1CCN(c2ncc3nc(-c4ccc(Cl)cc4)c(=O)n(C)c3n2)CC1
AC50 [13]: inconclusive

O=C(N/N=C/c1ccc(O)cc1)c1ccc(-c2csc(Nc3ccc(Cl)cc3)n2)cc1
IC50 [28]: > 100 µM (inactive)
IC50 [29]: > 100 µM (inactive)
IC50 [30]: 24.1 µM (active)
IC50 [31]: > 100 µM (inactive)
IC50 [32]: > 100 µM (inactive)
